Patent publication US20230295119A1, “SUBSTITUTED PYRIDINES FOR THE TREATMENT OF INFLAMMATORY DISEASES” (GOSSAMER BIO SERVICES, INC., priority 2020, published 2023)

How the values were obtained:
human JAK2 = human JAK2 (Homo sapiens (Human), UniProt O60674); experiment: JAK2 TR-FRET kinase assay; type: biochemical; conditions: JAK2 0.025 nM
human JAK3 = human JAK3 (Homo sapiens (Human), UniProt P52333); experiment: JAK3 TR-FRET kinase assay; type: biochemical; conditions: JAK3 0.0125 nM
human JAK1 = human JAK1 (Homo sapiens (Human), UniProt P23458); experiment: JAK1 TR-FRET kinase assay; type: biochemical; conditions: TR-FRET, JAK1 2.5 nM
human JAK1, sequence (P23458 whole entry, the tested form may be a part): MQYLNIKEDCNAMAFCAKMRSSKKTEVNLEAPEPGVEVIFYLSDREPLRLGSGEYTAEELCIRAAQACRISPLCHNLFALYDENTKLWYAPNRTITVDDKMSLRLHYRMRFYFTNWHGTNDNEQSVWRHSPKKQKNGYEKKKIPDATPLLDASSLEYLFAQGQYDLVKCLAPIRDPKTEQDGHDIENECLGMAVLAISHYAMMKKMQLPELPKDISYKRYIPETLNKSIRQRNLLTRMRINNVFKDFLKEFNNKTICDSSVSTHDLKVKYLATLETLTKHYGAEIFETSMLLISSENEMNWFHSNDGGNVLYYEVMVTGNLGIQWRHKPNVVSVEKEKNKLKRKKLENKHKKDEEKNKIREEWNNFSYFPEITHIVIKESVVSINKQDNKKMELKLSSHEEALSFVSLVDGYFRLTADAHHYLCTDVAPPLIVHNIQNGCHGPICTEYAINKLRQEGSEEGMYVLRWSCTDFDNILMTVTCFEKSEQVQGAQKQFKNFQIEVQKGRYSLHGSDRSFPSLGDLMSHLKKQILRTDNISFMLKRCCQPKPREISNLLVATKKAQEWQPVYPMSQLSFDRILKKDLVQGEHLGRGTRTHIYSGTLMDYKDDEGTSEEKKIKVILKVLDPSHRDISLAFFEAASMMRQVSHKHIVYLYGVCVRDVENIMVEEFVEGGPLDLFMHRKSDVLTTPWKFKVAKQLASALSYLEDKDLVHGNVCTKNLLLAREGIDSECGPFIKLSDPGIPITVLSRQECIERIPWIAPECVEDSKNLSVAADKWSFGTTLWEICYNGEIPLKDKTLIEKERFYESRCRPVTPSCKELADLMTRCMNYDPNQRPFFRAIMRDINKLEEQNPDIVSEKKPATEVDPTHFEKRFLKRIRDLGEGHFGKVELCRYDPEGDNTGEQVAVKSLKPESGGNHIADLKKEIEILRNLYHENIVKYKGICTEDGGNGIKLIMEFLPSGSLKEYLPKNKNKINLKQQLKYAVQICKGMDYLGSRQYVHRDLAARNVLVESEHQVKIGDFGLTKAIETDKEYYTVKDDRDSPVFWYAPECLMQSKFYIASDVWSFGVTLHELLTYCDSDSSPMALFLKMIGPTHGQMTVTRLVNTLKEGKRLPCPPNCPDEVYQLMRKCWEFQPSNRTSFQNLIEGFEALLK

TYK2 JH2 domain = TYK2 JH2 domain (Homo sapiens (Human), UniProt P29597); experiment: TYK2 JH2 NanoBRET assay; type: binding; conditions: Table 20, read-out: TYK2 IC50
TYK2 JH2 domain, sequence (P29597 589-875): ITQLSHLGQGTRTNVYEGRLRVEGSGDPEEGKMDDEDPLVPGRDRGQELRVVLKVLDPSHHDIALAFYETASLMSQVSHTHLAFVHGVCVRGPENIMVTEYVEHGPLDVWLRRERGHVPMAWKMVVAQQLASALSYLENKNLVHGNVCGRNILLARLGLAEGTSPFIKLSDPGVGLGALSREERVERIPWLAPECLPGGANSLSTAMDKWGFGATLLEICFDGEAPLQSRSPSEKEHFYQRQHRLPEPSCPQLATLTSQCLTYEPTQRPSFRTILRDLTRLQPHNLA
In short: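 HEK293T cells transiently expressing NanoLuc-TYK2 JH2 fusion, incubated 2 h with compound and NanoBRET K10 tracer (0.5 µM final). Target engagement read as acceptor/donor BRET ratio after Nano-Glo substrate plus extracellular NanoLuc inhibitor.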

human JAK3, sequence (P52333 whole entry): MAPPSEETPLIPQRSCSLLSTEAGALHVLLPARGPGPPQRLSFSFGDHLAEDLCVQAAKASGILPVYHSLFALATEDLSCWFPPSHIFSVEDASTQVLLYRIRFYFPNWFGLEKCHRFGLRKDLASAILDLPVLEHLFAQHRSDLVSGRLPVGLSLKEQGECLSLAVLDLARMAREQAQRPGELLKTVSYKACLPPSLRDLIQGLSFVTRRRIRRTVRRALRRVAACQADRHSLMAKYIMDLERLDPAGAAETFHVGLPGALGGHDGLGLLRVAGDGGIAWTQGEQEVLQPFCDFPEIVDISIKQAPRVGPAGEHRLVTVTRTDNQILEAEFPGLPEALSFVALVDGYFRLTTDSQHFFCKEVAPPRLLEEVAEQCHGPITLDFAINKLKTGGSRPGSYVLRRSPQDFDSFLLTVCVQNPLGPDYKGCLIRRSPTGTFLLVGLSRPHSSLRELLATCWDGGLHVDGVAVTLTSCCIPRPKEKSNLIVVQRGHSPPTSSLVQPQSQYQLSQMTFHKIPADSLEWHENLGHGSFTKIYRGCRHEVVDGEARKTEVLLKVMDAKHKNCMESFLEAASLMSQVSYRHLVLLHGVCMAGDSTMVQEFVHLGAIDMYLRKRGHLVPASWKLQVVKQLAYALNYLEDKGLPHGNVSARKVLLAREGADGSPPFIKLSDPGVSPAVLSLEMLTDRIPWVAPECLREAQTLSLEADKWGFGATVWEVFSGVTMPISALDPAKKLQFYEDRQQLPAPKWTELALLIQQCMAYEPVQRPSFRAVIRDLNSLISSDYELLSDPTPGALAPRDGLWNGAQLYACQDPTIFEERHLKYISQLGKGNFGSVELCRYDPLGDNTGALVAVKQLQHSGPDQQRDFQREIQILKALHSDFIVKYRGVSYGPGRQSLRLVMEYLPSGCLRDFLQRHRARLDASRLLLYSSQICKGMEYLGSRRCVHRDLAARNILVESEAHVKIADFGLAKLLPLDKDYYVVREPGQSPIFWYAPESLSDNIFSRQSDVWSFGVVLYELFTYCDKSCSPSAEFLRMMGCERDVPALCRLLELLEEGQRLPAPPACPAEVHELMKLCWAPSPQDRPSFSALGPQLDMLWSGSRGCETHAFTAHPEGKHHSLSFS
human JAK2, sequence (O60674 whole entry): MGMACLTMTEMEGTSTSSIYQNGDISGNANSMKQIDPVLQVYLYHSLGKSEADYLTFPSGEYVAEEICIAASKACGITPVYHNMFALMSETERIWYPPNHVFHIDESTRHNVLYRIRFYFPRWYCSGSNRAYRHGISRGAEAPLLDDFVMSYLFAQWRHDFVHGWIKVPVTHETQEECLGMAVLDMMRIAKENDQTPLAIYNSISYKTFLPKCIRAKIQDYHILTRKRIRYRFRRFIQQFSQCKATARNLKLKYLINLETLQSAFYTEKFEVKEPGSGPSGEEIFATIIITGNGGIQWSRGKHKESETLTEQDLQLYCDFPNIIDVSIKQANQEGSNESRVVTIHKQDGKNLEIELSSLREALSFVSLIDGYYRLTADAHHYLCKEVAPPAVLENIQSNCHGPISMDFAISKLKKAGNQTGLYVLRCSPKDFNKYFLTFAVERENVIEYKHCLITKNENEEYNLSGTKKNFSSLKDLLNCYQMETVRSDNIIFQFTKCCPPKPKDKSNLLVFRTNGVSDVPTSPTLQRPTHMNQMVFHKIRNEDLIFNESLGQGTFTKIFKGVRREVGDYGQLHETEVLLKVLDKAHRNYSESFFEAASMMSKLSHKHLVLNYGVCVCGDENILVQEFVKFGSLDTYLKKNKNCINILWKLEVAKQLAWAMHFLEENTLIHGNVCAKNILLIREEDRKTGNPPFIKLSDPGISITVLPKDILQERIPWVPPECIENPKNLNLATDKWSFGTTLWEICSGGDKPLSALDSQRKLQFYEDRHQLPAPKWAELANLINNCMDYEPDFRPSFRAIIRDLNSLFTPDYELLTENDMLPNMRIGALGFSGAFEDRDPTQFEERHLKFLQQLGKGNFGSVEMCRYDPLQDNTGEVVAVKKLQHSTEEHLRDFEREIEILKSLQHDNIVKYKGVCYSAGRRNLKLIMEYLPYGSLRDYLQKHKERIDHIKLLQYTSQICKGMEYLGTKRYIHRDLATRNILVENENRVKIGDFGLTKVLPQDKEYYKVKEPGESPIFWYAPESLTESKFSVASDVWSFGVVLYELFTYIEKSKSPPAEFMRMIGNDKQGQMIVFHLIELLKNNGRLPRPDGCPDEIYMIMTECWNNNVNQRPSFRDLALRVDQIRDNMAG

Row | SMILES | IC50 (human JAK2) [nM] | IC50 (human JAK3) [nM] | IC50 (human JAK1) [nM] | IC50 (TYK2 JH2 domain) [nM]
1 | CCC(=O)c1cnc(Nc2cn([C@H]3C[C@@H](O)C3)cn2)cc1Nc1cccc(-c2ncn(C)n2)c1OC [Compound 21P] | ≥ 500 | ≥ 500 | ≥ 500 | 5 to 50
2 | CCC(=O)c1cnc(Nc2ccn(CC3(C)COC3)n2)cc1Nc1cccc(-c2ncn(C)n2)c1OC [Compound 21Q] | ≥ 500 | 50 to 500 | ≥ 500 | 50 to 500
3 | CCC(=O)c1cnc(Nc2ccn(CC3COC3)n2)cc1Nc1cccc(-c2ncn(C)n2)c1OC [Compound 21R] | ≥ 500 | 50 to 500 | ≥ 500 | 5 to 50
4 | CCC(=O)c1cnc(Nc2ccn(CC3CCCO3)n2)cc1Nc1cccc(-c2ncn(C)n2)c1OC (centres unmarked) [Compound 21S] | ≥ 500 | ≥ 500 | ≥ 500 | 5 to 50
5 | CCC(=O)c1cnc(Nc2ccn(CC3CCOC3)n2)cc1Nc1cccc(-c2ncn(C)n2)c1OC (centres unmarked) [Compound 21T] | ≥ 500 | ≥ 500 | ≥ 500 | 5 to 50
6 | CCC(=O)c1cnc(Nc2ccn(CC3(CO)COC3)n2)cc1Nc1cccc(-c2ncn(C)n2)c1OC [Compound 21U] | 50 to 500 | 50 to 500 | ≥ 500 | 50 to 500
7 | CCC(=O)c1cnc(Nc2ccn(CC3CCO3)n2)cc1Nc1cccc(-c2ncn(C)n2)c1OC (centres unmarked) [Compound 21V] | ≥ 500 | ≥ 500 | ≥ 500 | 50 to 500
8 | CCC(=O)c1cnc(Nc2ccn(C[C@H]3C[C@@H](O)C3)n2)cc1Nc1cccc(-c2ncn(C)n2)c1OC [Compound 21W] | ≥ 500 | ≥ 500 | ≥ 500 | 5 to 50
9 | CCC(=O)c1cnc(Nc2ccn(CC3CN(C)C3)n2)cc1Nc1cccc(-c2ncn(C)n2)c1OC [Compound 21X] | ≥ 500 | ≥ 500 | ≥ 500 | 50 to 500
10 | CCC(=O)c1cnc(Nc2cc(OC)n(CCOC)n2)cc1Nc1cccc(-c2ncn(C)n2)c1OC [Compound 21Y] | 50 to 500 | 50 to 500 | ≥ 500 | 5 to 50
11 | CCC(=O)c1cnc(Nc2cc(C)n(CCOC)n2)cc1Nc1cccc(-c2ncn(C)n2)c1OC [Compound 21Z] | ≥ 500 | 50 to 500 | ≥ 500 | 5 to 50
12 | CCC(=O)c1cnc(NC(=O)C2CC2c2cnn(C)c2)cc1Nc1cccc(-c2ncn(C)n2)c1OC (centres unmarked) [Compound 22A, N-(4-((2-methoxy-3-(1-methyl-1H-1,2,4-tliazol-3-yl)phenyl)amino)-5-propionylpyridin-2-yl)-2-(1-methyl-1H-pyrazol-4-yl)cyclopropane-1-carboxamide] | ≥ 500 | ≥ 500 | ≥ 500 | 5 to 50
13 | CCC(=O)c1cnc(NC(=O)C2CC2c2ccccn2)cc1Nc1cccc(-c2ncn(C)n2)c1OC (centres unmarked) [Compound 22B] | ≥ 500 | ≥ 500 | ≥ 500 | 50 to 500
14 | CCC(=O)c1cnc(NC(=O)[C@@H]2C[C@H]2C(=O)O)cc1Nc1cccc(-c2ncn(C)n2)c1OC [Compound 22C] | ≥ 500 | ≥ 500 | ≥ 500 | ≥ 500
15 | CCC(=O)c1cnc(NC(=O)[C@@H]2C[C@H]2CN(C)C)cc1Nc1cccc(-c2ncn(C)n2)c1OC [Compound 22D] | ≥ 500 | ≥ 500 | ≥ 500 | 5 to 50
16 | CCC(=O)c1cnc(NC(=O)[C@@H]2C[C@H]2C(N)=O)cc1Nc1cccc(-c2ncn(C)n2)c1OC [Compound 22E] | ≥ 500 | ≥ 500 | ≥ 500 | ≥ 500

Row | SMILES | IC50 (human JAK2) [nM] | IC50 (human JAK3) [nM] | IC50 (human JAK1) [nM] | IC50 (TYK2 JH2 domain) [nM]
17 | CCC(=O)c1cnc(NC(=O)[C@@H]2C[C@@H]2C(N)=O)cc1Nc1cccc(-c2ncn(C)n2)c1OC [Compound 22G] | ≥ 500 | ≥ 500 | ≥ 500 | ≥ 500
18 | CCC(=O)c1cnc(NC(=O)[C@@H]2C[C@H]2NC(=O)OC(C)(C)C)cc1Nc1cccc(-c2ncn(C)n2)c1OC [Compound 22H] | ≥ 500 | ≥ 500 | ≥ 500 | ≥ 500
19 | CCC(=O)c1cnc(NC(=O)[C@@H]2C[C@H]2NC(C)=O)cc1Nc1cccc(-c2ncn(C)n2)c1OC [Compound 22I] | ≥ 500 | ≥ 500 | ≥ 500 | ≥ 500
20 | CCC(=O)c1cnc(NC(=O)[C@@H]2C[C@@H]2NC(=O)OC(C)(C)C)cc1Nc1cccc(-c2ncn(C)n2)c1OC [Compound 22J] | ≥ 500 | ≥ 500 | ≥ 500 | ≥ 500
21 | CCC(=O)c1cnc(NC(=O)[C@@H]2C[C@@H]2NC(C)=O)cc1Nc1cccc(-c2ncn(C)n2)c1OC [Compound 22K] | ≥ 500 | ≥ 500 | ≥ 500 | ≥ 500
22 | CCC(=O)c1cnc(NC(=O)[C@@H]2C[C@H]2CC#N)cc1Nc1cccc(-c2ncn(C)n2)c1OC [Compound 22L] | ≥ 500 | ≥ 500 | ≥ 500 | ≥ 500
23 | CCC(=O)c1cnc(NC(=O)C2CC2c2ccn(C)n2)cc1Nc1cccc(-c2ncn(C)n2)c1OC (centres unmarked) [Compound 22M] | ≥ 500 | ≥ 500 | ≥ 500 | 50 to 500
24 | CCC(=O)c1cnc(NC(=O)[C@@H]2C[C@H]2CS(C)(=O)=O)cc1Nc1cccc(-c2ncn(C)n2)c1OC [Compound 22N] | ≥ 500 | ≥ 500 | ≥ 500 | 50 to 500
25 | CCC(=O)c1cnc(NC(=O)CC2CCN(C)CC2)cc1Nc1cccc(-c2ncn(C)n2)c1OC [Compound 23A, N-(4-((2-methoxy-3-(1-methyl-1H-1,2,4-triazol-3-yl)phenyl)amino)-5-propionylpyridin-2-yl)-2-(1-methylpiperidin-4-yl)acetamide] | ≥ 500 | ≥ 500 | ≥ 500 | 5 to 50
26 | CCC(=O)c1cnc(NC(=O)CC2CC2)cc1Nc1cccc(-c2ncn(C)n2)c1OC [Compound 23B] | ≥ 500 | ≥ 500 | ≥ 500 | 5 to 50
27 | CCC(=O)c1cnc(NC(=O)CC2(O)CC2)cc1Nc1cccc(-c2ncn(C)n2)c1OC [Compound 23C] | ≥ 500 | ≥ 500 | ≥ 500 | 50 to 500
28 | CCC(=O)c1cnc(NC(=O)CCN2CCCC2)cc1Nc1cccc(-c2ncn(C)n2)c1OC [Compound 23D] | ≥ 500 | ≥ 500 | ≥ 500 | 50 to 500
29 | CCC(=O)c1cnc(NC(=O)CCCN2CCCC2)cc1Nc1cccc(-c2ncn(C)n2)c1OC [Compound 23E] | ≥ 500 | ≥ 500 | ≥ 500 | 50 to 500
30 | CCC(=O)c1cnc(NC(=O)CCc2cnn(C)c2)cc1Nc1cccc(-c2ncn(C)n2)c1OC [Compound 23F] | ≥ 500 | ≥ 500 | ≥ 500 | 50 to 500
31 | CCC(=O)c1cnc(NC(=O)CC2CN(C)C2)cc1Nc1cccc(-c2ncn(C)n2)c1OC [Compound 23G] | ≥ 500 | ≥ 500 | ≥ 500 | ≥ 500
32 | CCC(=O)c1cnc(NC(=O)CCNC)cc1Nc1cccc(-c2ncn(C)n2)c1OC [Compound 23H] | ≥ 500 | ≥ 500 | ≥ 500 | 50 to 500
